Values quoted from earlier work as cited in US10086029B2, “Fermented plant extracts, methods of production and uses” (KEFIPLANT INC., priority 2006, dated 2018).

System: xanthine oxidase
Conditions: glycoside versus aglycone, literature study

Question: For `C[C@@H]1O[C@@H](OC[C@H]2O[C@@H](Oc3c(-c4ccc(O)c(O)c4)oc4cc(O)cc(O)c4c3=O)[C@H](O)[C@@H](O)[C@@H]2O)[C@H](O)[C@H](O)[C@H]1O` [rutine], which “Activity as inhibitor of xanthine oxidase relative to quercetine” value is on record?
Answer: The value was “nearly ten times less active than quercetine”.
